From patent US9868737B2, “Pyridino[1,2-A]pyrimidone analogue used as MTOR/P13K inhibitor” (CISEN PHARMACEUTICAL CO., LTD., priority 2014, dated 2018)
Where two headings read alike, the source gives them in different places. Blank lines part the entries; values can stand above or below the compound they belong to.

Tested on: MCF-7 cells
Assay: In vitro test of cell activity (MCF-7 cells, insulin stimulation, ELISA-One fluorescence)
Assay type: cell-based
Conditions: Homo sapiens, MCF7, MCF-7 cells; for inhibition at 0.5 µM: conc. 0.5 μM; for inhibition at 0.25 µM: conc. 0.25 μM; for inhibition at 1 µM: conc. 1 μM
Experimental: Example In Vitro Tests of Cell Activities Experimental Steps and Methods:
1) MCF-7 cells were inoculated at the density of 2.5×10^4 cells/well into 96-well plates (the culture medium used should be a complete culture medium containing 10% FBS).
2) On the next day, the medium in each well was drawn out. A certain concentration (preliminary screening) or a series of concentration (IC50 test) of compounds were dissolved in a culture medium without serum and added to the 96-well plates to culture cells for 2 hours.
3) Insulin was dissolved in a culture medium without serum, added to the cultured cells and incubated for 30 minutes, wherein the final concentration of insulin was […].
4) A lysis solution was prepared according to the following method during the waiting period for the reaction:
a) Enhancer solution was removed from the refrigerator to melt in advance.
b) Enhancer solution was diluted 10 times with the 5× Lysis Buffer to give a concentrated lysis solution.
c) The concentrated lysis solution was diluted 5 times with double distilled water to give the lysis solution.
5) The medium in each well was completely removed and each well was quickly rinsed with PBS once.
6) 150 μl of the freshly prepared lysis solution was added to each well and shaked at room temperature for 10 minutes.
7) After confirming that all cells were detached, the lysis solution together with the cell fragments was transferred into a 1.5 ml tube.
8) The tube was shaked on vortes mixer to make the lysis solution and cells mix completely and then the mixture was centrifugated at 4° C. under 12000 g for 10 minutes.
9) The number of strips of ELISA-one micro-well plate that is required was calculated. The needless strips were removed from the frame, put back into the storage bag and sealed. Before the strips of micro-well plate were used, 200 μl of double distilled water was used to rinse each well to remove preservative.
10) 50 μl of antibody mixture was added to each well. (The antibody mixture solution was prepared by mixing the medium antibody reagent and the enzyme labeled antibody reagent with an equal proportion. The preparation of antibody mixture didn't need vortex.)
11) 25 μl of cell lysates was added to each well of ELISA-One micro-well plate. The micro-well plate was covered with adhesive sealing film and incubated on a micro-well plate oscillation instrument at room temperature for 1 hour.
12) Each well was rinsed with 150 μl of 1× rinsing buffer 3 times. After the last rinsing, the rinsing buffer in the well was completely removed. If necessary, the 1× rinsing buffer could be allowed to stay in the micro-well plate for up to 30 minutes so that the substrate mixed solution could be prepared during such time period.
13) The substrate mixed solution should be prepared just before each use, 10 μl of the substrate mixed solution was added to each well and the micro-well plate was sealed with tin-foil and incubated on the micro-well plate oscillation instrument at room temperature for 10 minutes.
14) 10 μl of stop solution was added to each well and mixed slightly (5-10 seconds) on the micro-well plate oscillation instrument.
15) The corresponding ELISA-One filter group was assembled and used to read the fluorescence signal intensity.

- IC50 (read-out: IC50 p-AKT): ≤ 50 nM
- IC50 (read-out: IC50 p-p70S6K): ≤ 50 nM
Structure (SMILES): COc1ncc(-c2ccc3ncc(F)c(=O)n3c2)cc1NS(=O)(=O)c1cccc(F)c1 [compound 67]
- inhibition at 0.5 µM (read-out: % inhibition AKT): 85.8%
- inhibition at 0.5 µM (read-out: % inhibition p70s6k): 89.7%

- IC50 (read-out: IC50 p-AKT): ≤ 50 nM
- IC50 (read-out: IC50 p-p70S6K): 100 to 250 nM
Structure (SMILES): CCOc1cnc2ccc(-c3cnc(OC)c(NS(=O)(=O)c4ccc(F)cc4Cl)c3)cn2c1=O [compound 172]
- inhibition at 0.25 µM (read-out: % inhibition AKT): 83.5%
- inhibition at 0.25 µM (read-out: % inhibition p70s6k): 74.4%

- IC50 (read-out: IC50 p-AKT): ≤ 50 nM
Structure (SMILES): COCCNc1cnc2ccc(-c3cnc(OC)c(NS(=O)(=O)c4sc(C)nc4C)c3)cn2c1=O [compound 99]

- IC50 (read-out: IC50 p-AKT): ≤ 50 nM
Structure (SMILES): CCc1ccc(S(=O)(=O)Nc2cc(-c3ccc4ncc(OCCOC)c(=O)n4c3)cnc2OC)c(F)c1 [compound 281]

- IC50 (read-out: IC50 p-AKT): ≤ 50 nM
Structure (SMILES): COc1ncc(-c2ccc3ncc(Cl)c(=O)n3c2)cc1NS(=O)(=O)c1sc(Cl)nc1C [compound 168]

- IC50 (read-out: IC50 p-AKT): ≤ 50 nM
Structure (SMILES): COc1ncc(-c2ccc3ncc(OCCCF)c(=O)n3c2)cc1NS(=O)(=O)c1sc(C)nc1C [compound 201]

Structure (SMILES): CCOc1ncc(-c2ccc3nccc(=O)n3c2)cc1NS(=O)(=O)c1ccccc1F [compound 29]
- inhibition at 1 µM (read-out: % inhibition AKT): 59.6%
- inhibition at 1 µM (read-out: % inhibition p70s6k): 26.5%

- IC50 (read-out: IC50 p-AKT): ≤ 50 nM
- IC50 (read-out: IC50 p-p70S6K): 50 to 100 nM
Structure (SMILES): COc1ncc(-c2ccc3ncc(C)c(=O)n3c2)cc1NS(=O)(=O)c1ccccc1F [compound 84]
- inhibition at 0.5 µM (read-out: % inhibition AKT): 93.8%
- inhibition at 0.5 µM (read-out: % inhibition p70s6k): 88.7%

- IC50 (read-out: IC50 p-AKT): 50 to 100 nM
Structure (SMILES): COCCOc1cnc2ccc(-c3ccc(OC)c(NS(=O)(=O)c4ccc(F)cc4F)c3)cn2c1=O [compound 205]

Structure (SMILES): COc1ncc(-c2cn3c(=O)ccnc3cn2)cc1NS(=O)(=O)c1ccc(C)nc1 [compound 45]
- inhibition at 0.5 µM (read-out: % inhibition AKT): 15.2%
- inhibition at 0.5 µM (read-out: % inhibition p70s6k): -1%

- IC50 (read-out: IC50 p-AKT): 50 to 100 nM
- IC50 (read-out: IC50 p-p70S6K): 100 to 250 nM
Structure (SMILES): COCCOc1cnc2ccc(-c3cnc(OC)c(NS(=O)(=O)c4ccc(F)cc4F)c3)cn2c1=O [compound 175, 2,4-difluoro-N-(2-methoxy-5-(3-(2-methoxyethoxy)-4-oxo-4H-pyrido[1,2-a]pyrimidin-7-yl)pyridin-3-yl)benzsulfamide]
- inhibition at 0.25 µM (read-out: % inhibition AKT): 75.2%
- inhibition at 0.25 µM (read-out: % inhibition p70s6k): 65.4%

Structure (SMILES): COc1ncc(-c2ccc3nc(C)cc(=O)n3c2)cc1NS(=O)(=O)c1ccccc1F [compound 230]
- inhibition at 0.5 µM (read-out: % inhibition AKT): 43.5%
- inhibition at 0.5 µM (read-out: % inhibition p70s6k): 8.8%

- IC50 (read-out: IC50 p-AKT): ≤ 50 nM
- IC50 (read-out: IC50 p-p70S6K): > 250 nM
Structure (SMILES): COc1ncc(-c2ccc3nccc(=O)n3c2)cc1NS(=O)(=O)c1cnc2ccccc2c1 [compound 38]
- inhibition at 0.5 µM (read-out: % inhibition AKT): 91.5%
- inhibition at 0.5 µM (read-out: % inhibition p70s6k): 79.4%

- IC50 (read-out: IC50 p-AKT): ≤ 50 nM
Structure (SMILES): COc1ncc(-c2ccc3ncc(OCC4COC4)c(=O)n3c2)cc1NS(=O)(=O)c1sc(C)nc1C [compound 185]

- IC50 (read-out: IC50 p-AKT): ≤ 50 nM
Structure (SMILES): COc1ncc(-c2ccc3ncc(N)c(=O)n3c2)cc1NS(=O)(=O)c1sc(N)nc1C [compound 94]

- IC50 (read-out: IC50 p-AKT): 50 to 100 nM
Structure (SMILES): COCOc1cnc2ccc(-c3cnc(OC)c(NS(=O)(=O)c4sc(N)nc4C)c3)cn2c1=O [compound 184]

- IC50 (read-out: IC50 p-AKT): ≤ 50 nM
Structure (SMILES): COCCOc1cnc2ccc(-c3cnc(OC)c(NS(=O)(=O)c4ccc(F)cc4C(F)(F)F)c3)cn2c1=O [compound 278]

Structure (SMILES): Cc1ncc(-c2ccc3nccc(=O)n3c2)cc1NS(=O)(=O)c1ccc(F)cc1F [compound 7]
- inhibition at 1 µM (read-out: % inhibition AKT): 81.3%
- inhibition at 1 µM (read-out: % inhibition p70s6k): 50.1%

- IC50 (read-out: IC50 p-AKT): ≤ 50 nM
- IC50 (read-out: IC50 p-p70S6K): ≤ 50 nM
Structure (SMILES): COc1ncc(-c2ccc3ncc(OC)c(=O)n3c2)cc1NS(=O)(=O)c1ccc(Cl)s1 [compound 108]
- inhibition at 0.25 µM (read-out: % inhibition AKT): 92.4%
- inhibition at 0.25 µM (read-out: % inhibition p70s6k): 82.5%

- IC50 (read-out: IC50 p-AKT): > 250 nM
Structure (SMILES): CNc1ncc(-c2ccc3ncc(OCCOC)c(=O)n3c2)cc1NS(=O)(=O)c1ccc(F)cc1F [compound 215]

- IC50 (read-out: IC50 p-AKT): > 250 nM
Structure (SMILES): COc1ncc(-c2ccc3ncc(OCC(=O)O)c(=O)n3c2)cc1NS(=O)(=O)c1ccc(F)cc1F [compound 177]

- IC50 (read-out: IC50 p-AKT): 50 to 100 nM
Structure (SMILES): COc1ncc(-c2ccc3ncc(OC)c(=O)n3c2)cc1NS(=O)(=O)c1sccc1C [compound 110]
